± gives the standard deviation of the averaged measurements.
What was measured:
Test in all cases: level (log10 ratio to DMSO vehicle control); higher = higher biomarker level / cell amount than vehicle control
[1] = compound: CO[Si](C)(CCC(F)(F)C(F)(F)C(F)(F)C(F)(F)C(F)(F)C(F)(F)F)OC [Dimethoxymethyl((perfluorohexyl)ethyl)silane] (in DMSO)
Procedure: (§1)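 BioMAP Diversity Plus panel of 12 human primary cell co-culture systems (3C, 4H, LPS, SAg, BT, BF4T, BE3C, CASM3C, HDF3CGF, KF3CT, MyoF, Mphg). Compounds were added 1 h before stimulation and left for 24 h (MyoF 48 h; BT 72 h for soluble read-outs or 6 d for IgG). Biomarkers were read by ELISA, cytotoxicity by SRB, PBMC viability and proliferation by Alamar Blue. Each well value was divided by the mean of 8 DMSO control wells on the same plate and log10 transformed; duplicate blinded samples were tested at 4 concentrations.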

[2] = compound: C[C@@H]1C[C@H]2[C@@H]3CCC4=CC(=O)C=C[C@]4(C)[C@@]3(F)[C@@H](O)C[C@]2(C)[C@@]1(O)C(=O)COP(=O)(O)O [Dexamethasone sodium phosphate] (in DMSO)
Procedure: as §1

[3] = compound: NS(=O)(=O)C(F)(F)C(F)(F)C(F)(F)C(F)(F)C(F)(F)C(F)(F)C(F)(F)C(F)(F)F [Perfluorooctanesulfonamide] (in DMSO)
Procedure: as §1

Octafluoroadipic acid = compound: O=C(O)C(F)(F)C(F)(F)C(F)(F)C(F)(F)C(=O)O [Octafluoroadipic acid] (in DMSO)
Procedure: as §1

[4] = compound: O=S(=O)(O)C(F)(F)C(F)(F)C(F)(F)C(F)(F)C(F)(F)C(F)(F)C(F)(F)F [Perfluoroheptanesulfonic acid] (in DMSO)
Procedure: as §1

[5] = compound: OCC(F)(F)OC(F)(F)C(F)(F)OC(F)(F)C(F)(F)OC(F)(F)CO [1H,1H,11H,11H-Perfluorotetraethylene glycol] (in DMSO)
Procedure: as §1

Row | Test System | level (log10) ([1]; 6700 nM) | level (log10) ([1]; 20000 nM) | level (log10) ([2]; 1500 nM) | level (log10) ([2]; 4400 nM) | level (log10) ([2]; 13000 nM) | level (log10) ([2]; 40000 nM) | level (log10) ([3]; 6700 nM) | level (log10) ([3]; 20000 nM) | level (log10) (Octafluoroadipic acid; 6700 nM) | level (log10) (Octafluoroadipic acid; 20000 nM) | level (log10) (Octafluoroadipic acid; 60000 nM) | level (log10) ([4]; 1500 nM) | level (log10) ([4]; 4400 nM) | level (log10) ([4]; 13000 nM) | level (log10) ([4]; 40000 nM) | level (log10) ([5]; 6700 nM) | level (log10) ([5]; 20000 nM) | level (log10) ([5]; 60000 nM)
1 | BE3C:tPA | 0.0005 ± 0.026 | -0.026 ± 0.037 | -0.149 ± 0.029 | -0.175 ± 0.013 | -0.219 ± 0.062 | -0.197 ± 0.0035 | 0.0025 ± 0.035 | -0.058 ± 0.055 | -0.003 ± 0.0028 | 0.004 ± 0.0099 | 0.0015 ± 0.0064 | 0.023 ± 0.041 | 0.0415 ± 0.073 | 0.066 ± 0.1 | 0.0595 ± 0.086 | -0.0145 ± 0.035 | -0.0265 ± 0.044 | -0.008 ± 0.061
2 | HDF3CGF:TIMP-2 | 0.002 ± 0.027 | -0.03 ± 0.0014 | 0.0475 ± 0.028 | 0.062 ± 0.081 | 0.061 ± 0.065 | 0.0585 ± 0.0021 | -0.0545 ± 0.0021 | -0.102 ± 0.044 | 0.007 ± 0.0085 | 0.02 ± 0.023 | 0.0055 ± 0.0078 | -0.0185 ± 0.0064 | -0.0395 ± 0.029 | -0.0115 ± 0.028 | -0.045 ± 0.0014 | -0.0285 ± 0.011 | -0.046 ± 0.11 | -0.121 ± 0.07
3 | CASM3C:HLA-DR | -0.012 ± 0.021 | -0.0005 ± 0.0035 | 0.0495 ± 0.06 | 0.0425 ± 0.022 | 0.02 ± 0.013 | 0.0355 ± 0.023 | -0.0045 ± 0.012 | -0.004 ± 0.0085 | -0.0035 ± 0.019 | -0.0095 ± 0.032 | -0.0025 ± 0.0078 | -0.011 ± 0.0028 | 0.009 ± 0.0085 | -0.0255 ± 0.028 | -0.009 ± 0.031 | -0.002 ± 0.0099 | -0.0115 ± 0.0021 | -0.005 ± 0.0085
4 | CASM3C:PAI-I | -0.0125 ± 0.022 | -0.0005 ± 0.011 | 0.011 ± 0.018 | 0.0125 ± 0.018 | 0.0145 ± 0.015 | 0.015 ± 0.0028 | 0.012 ± 0.0057 | 0.0055 ± 0.011 | 0.001 ± 0.0057 | -0.0015 ± 0.00071 | 0.002 ± 0.013 | 0.006 ± 0.0057 | 0.0075 ± 0.0064 | 0.009 ± 0.0042 | 0.008 ± 0.0042 | -0.0035 ± 0.012 | 0.0005 ± 0.0035 | 0.007 ± 0.0014
5 | BE3C:PAI-I | 0.009 ± 0.033 | -0.0245 ± 0.023 | 0.0905 ± 0.025 | 0.109 ± 0.016 | 0.098 ± 0.028 | 0.0635 ± 0.054 | -0.194 ± 0.03 | -0.202 ± 0.016 | -0.0025 ± 0.005 | 0.0015 ± 0.0035 | 0.0025 ± 0.0035 | 0.016 ± 0.044 | 0.047 ± 0.057 | 0.0385 ± 0.06 | 0.033 ± 0.078 | 0.0145 ± 0.012 | -0.0035 ± 0.021 | -0.072 ± 0.018
6 | CASM3C:Serum Amyloid A | -0.015 ± 0.0014 | 0.014 ± 0.041 | 0.489 ± 0.034 | 0.473 ± 0.015 | 0.4675 ± 0.0021 | 0.469 ± 0.022 | 0.0055 ± 0.028 | 0.012 ± 0.047 | -0.032 ± 0.037 | -0.0515 ± 0.011 | 0.0105 ± 0.005 | 0.03 ± 0.051 | -0.027 ± 0.0028 | -0.0305 ± 0.032 | -0.013 ± 0.048 | 0.0105 ± 0.0092 | -0.0065 ± 0.00071 | 0.002 ± 0.045
7 | KF3CT:PAI-I | 0.0045 ± 0.0064 | 0.009 ± 0.014 | 0.0055 ± 0.0021 | 0.0235 ± 0.0092 | 0.002 ± 0.025 | 0.006 | 0.03 ± 0.027 | -0.108 ± 0.054 | -0.0135 ± 0.0092 | -0.0135 ± 0.011 | -0.002 ± 0.017 | 0.001 ± 0.028 | 0.002 ± 0.035 | -0.01 ± 0.034 | -0.034 ± 0.0099 | -0.003 ± 0.02 | -0.0115 ± 0.0064 | -0.033 ± 0.0042
8 | MyoF:bFGF | 0.002 ± 0.0085 | 0.0055 ± 0.011 | -0.035 ± 0.042 | -0.0165 ± 0.035 | -0.042 ± 0.031 | -0.028 ± 0.0042 | 0.0115 ± 0.00071 | -0.0145 ± 0.0021 | -0.0035 ± 0.00071 | 0.002 ± 0.0057 | 0.0055 ± 0.0092 | 0.021 ± 0.0071 | 0.0185 ± 0.005 | 0.0105 ± 0.00071 | 0.039 ± 0.02 | 0.0045 ± 0.00071 | 0.0045 ± 0.0092 | 0.004 ± 0.011
9 | HDF3CGF:Collagen I | 0.0095 ± 0.077 | 0.052 ± 0.038 | -0.0005 ± 0.1 | -0.016 ± 0.047 | -0.0155 ± 0.023 | 0.0075 ± 0.005 | 0.08 ± 0.037 | -0.0535 ± 0.046 | -0.008 ± 0.059 | -0.011 ± 0.024 | 0.042 ± 0.021 | -0.0005 ± 0.011 | -0.0075 ± 0.021 | -0.0105 ± 0.025 | 0.021 ± 0.075 | -0.021 ± 0.065 | -0.0405 ± 0.053 | -0.116 ± 0.0057
10 | BE3C:SRB | -0.0035 ± 0.0035 | -0.003 ± 0.0042 | 0.0135 ± 0.013 | 0.003 ± 0.0014 | 0.002 ± 0.0014 | 0.0115 ± 0.0064 | -0.0145 ± 0.0021 | -0.0315 ± 0.00071 | 0.0035 ± 0.005 | 0.0005 ± 0.0035 | -0.0035 ± 0.0092 | 0.015 ± 0.014 | -0.005 ± 0.0099 | -0.0005 ± 0.0021 | -0.0055 ± 0.0064 | -0.004 ± 0.0057 | -0.0055 ± 0.00071 | -0.0115 ± 0.00071
11 | 3C:CD54/ICAM-1 | -0.008 ± 0.0085 | 0.0265 ± 0.016 | -0.006 ± 0.04 | -0.019 ± 0.013 | -0.0145 ± 0.022 | -0.0125 ± 0.00071 | -0.0005 ± 0.005 | 0.002 ± 0.011 | -0.007 ± 0.014 | -0.0075 ± 0.018 | -0.0065 ± 0.013 | 0.0085 ± 0.005 | -0.003 ± 0.0042 | -0.001 ± 0.013 | -0.0015 ± 0.0021 | 0.0015 ± 0.00071 | -0.009 ± 0.0071 | 0.007
12 | lMphg:sIL-10 | -0.0465 ± 0.013 | -0.085 ± 0.014 | -0.286 ± 0.05 | -0.503 ± 0.054 | -0.62 ± 0.056 | -0.646 ± 0.054 | -0.068 ± 0.021 | -0.169 ± 0.025 | -0.067 ± 0.014 | -0.0425 ± 0.077 | -0.0425 ± 0.046 | -0.042 ± 0.018 | -0.109 ± 0.048 | -0.101 ± 0.023 | -0.239 ± 0.072 | -0.0385 ± 0.056 | -0.0965 ± 0.066 | -0.306 ± 0.025
13 | lMphg:CD62E/E-Selectin | 0.019 ± 0.0099 | 0.0135 ± 0.033 | -0.147 ± 0.0028 | -0.212 ± 0.0042 | -0.239 ± 0.089 | -0.292 ± 0.061 | -0.118 ± 0.041 | -0.125 ± 0.0057 | -0.0025 ± 0.036 | -0.0275 ± 0.057 | -0.028 ± 0.064 | -0.029 ± 0.028 | -0.0015 ± 0.046 | -0.0135 ± 0.054 | 0.0415 ± 0.043 | -0.056 ± 0.037 | -0.0635 ± 0.081 | -0.072 ± 0.086
14 | BE3C:MMP-1 | -0.0085 ± 0.03 | 0.034 ± 0.033 | -0.113 ± 0.059 | -0.0825 ± 0.11 | -0.137 ± 0.052 | -0.141 ± 0.069 | 0.084 ± 0.021 | 0.154 ± 0.014 | -0.0145 ± 0.025 | -0.0205 ± 0.037 | 0.0155 ± 0.0021 | 0.011 ± 0.018 | 0.019 ± 0.023 | 0.05 ± 0.021 | 0.133 ± 0.022 | -0.001 ± 0.0057 | 0.022 | 0.0915 ± 0.057
15 | CASM3C:CD141/Thrombomodulin | -0.008 ± 0.0057 | -0.015 ± 0.021 | 0.107 ± 0.11 | 0.0895 ± 0.067 | 0.073 ± 0.041 | 0.123 ± 0.011 | 0 ± 0.0085 | 0.0505 ± 0.0078 | 0.0115 ± 0.0021 | 0.0105 ± 0.021 | 0.0065 ± 0.022 | 0.019 ± 0.037 | -0.019 ± 0.028 | -0.0185 ± 0.022 | 0.038 ± 0.078 | -0.0135 ± 0.015 | -0.009 ± 0.0085 | 0.035 ± 0.0042
16 | lMphg:CCL2/MCP-1 | -0.027 ± 0.0057 | 0.001 ± 0.033 | -0.0595 ± 0.0078 | -0.103 ± 0.0064 | -0.117 ± 0.021 | -0.126 ± 0.0064 | -0.032 ± 0.016 | -0.0485 ± 0.046 | 0.0135 ± 0.013 | -0.008 ± 0.016 | 0.028 ± 0.059 | -0.009 ± 0.03 | -0.004 ± 0.047 | 0.003 ± 0.0042 | 0.035 ± 0.0028 | -0.0285 ± 0.032 | -0.079 ± 0.034 | -0.073 ± 0.052
